# Results published in patent publication US20200237759A1, “DOSAGE REGIME AND METHOD FOR TREATING PULMONARY ARTERIAL HYPERTENSION” (Altavant Sciences GmbH, priority 2019, published 2020).
# Several values for one entry are separate records, joined by “and”; a condition that tells them apart may be missing. Identical values can stand only once.
# Key:
# [1] = Safety and tolerability in healthy adult subjects (Study KAR5585-101); type: in vivo, human
# [2] = Part 2 MAD plasma pharmacokinetics, BID oral KAR5585 for 14 days; conditions: for VZ/F, Day 14 / mean VZ/F, Day 1: fed
# Method: Food effect was to be evaluated in Part 1, Period 2.
# Part 2 (MAD): BID doses (separated by approximately 12 hours on Days 1 to 13) and a single AM dose on Day 14. One or more of the MAD Cohort could have been dosed once daily (QD).
# Pharmacokinetic data were to be summarized descriptively.
# [3] = 100 mg (Cohort 2) to 400 mg (Cohort 4) BID fed, 4-fold increase in dose
# [4] = 100 mg/dose BID Fasted, Cohort 1, Day 1 AM
# [5] = 100 mg/dose BID Fasted, Cohort 1, Day 14
# [6] = 100 mg/dose BID Fed, Cohort 2, Day 1 AM
# [7] = 100 mg/dose BID Fed, Cohort 2, Day 1 PM
# [8] = 100 mg/dose BID Fed, Cohort 2, Day 7 AM
# [9] = 100 mg/dose BID Fed, Cohort 2, Day 7 PM
# [10] = 100 mg/dose BID Fed, Cohort 2, Day 14
# [11] = 200 mg/dose BID Fed, Cohort 3, Day 1 AM
smiles,measurement,setting,value
"CCOC(=O)[C@@H]1CC2(CCN(c3cc(O[C@H](c4ccc(Cl)cc4-c4ccccc4)C(F)(F)F)nc(N)n3)CC2)CN1 [KAR5585, (S)-ethyl 8-(2-amino-6-((R)-1-(5-chloro-[1,1′-biphenyl]-2-yl)-2,2,2-trifluoroethoxy)pyrimidin-4-yl)-2,8-diazaspiro[4.5]decane-3-carboxylate]",tolerability,"[1]; 400 mg single oral dose under fed conditions, 9 healthy adult subjects",well-tolerated
same,tolerability throughout the trial,"[1]; Part 1 and Part 2, all doses",well tolerated throughout the trial
same,safety and tolerability,"[1]; multiple ascending oral doses 100-400 mg BID up to 14 days, 36 healthy adult subjects",safe and well-tolerated
same,"increase in mean AUC0-12, Day 1",[2]; [3],5.1 fold
same,"increase in mean AUC0-12, Day 14",[2]; [3],3.1 fold
same,"increase in mean AUC0-24, Day 1",[2]; [3],3.6 fold
same,"increase in mean AUC0-24, Day 14",[2]; [3],3.6 fold and 3.63 fold
same,"increase in mean Cmax, Day 1",[2]; [3],4.4 fold
same,"increase in mean Cmax, Day 14",[2]; [3],~3.0 fold
same,"time to peak plasma concentrations (range), Day 1","[2]; 100 mg KAR5585 BID, Part 2 Cohort 1 (fasted state)",0.75 to 2.0 h
same,"VZ/F, Day 14",[2]; 100 mg KAR5585 BID,3520 L
same,"mean VZ/F, Day 1",[2]; 100 mg KAR5585 BID,4100 L
same,AUC0-12 (Mean),[2]; [4],62.8 ng·h/mL
same,Cmax (Mean),[2]; [4],16.7 ng/mL
same,Vz/F (Mean),[2]; [4],4900 L
same,tmax (Median),[2]; [4],1.5 h
same,AUC0-24 (Mean),[2]; [5],99.8 ng·h/mL
same,C24 (Geo. Mean),[2]; [5],BLQ
same,C24 (Mean),[2]; [5],BLQ
same,Cmax (Mean),[2]; [5],21.3 ng/mL
same,Vz/F (Geo. Mean),[2]; [5],4230 L
same,Vz/F (Mean),[2]; [5],4420 L
same,t1/2 (Mean),[2]; [5],2.49 h
same,tmax (Median),[2]; [5],1.0 h
same,AUC0-12 (Geo. Mean),[2]; [6],51.2 ng·h/mL
same,AUC0-12 (Mean),[2]; [6],55.5 ng·h/mL
same,AUC0-∞ (Geo. Mean),[2]; [6],51.7 ng·h/mL
same,AUC0-∞ (Mean),[2]; [6],55.9 ng·h/mL
same,Cmax (Geo. Mean),[2]; [6],17.7 ng/mL
same,Cmax (Mean),[2]; [6],18.4 ng/mL
same,Vz/F (Geo. Mean),[2]; [6],3830 L
same,Vz/F (Mean),[2]; [6],4100 L
same,t1/2 (Geo. Mean),[2]; [6],1.37 h
same,tmax (Median),[2]; [6],0.75 h
same,AUC0-∞ (Geo. Mean),[2]; [7],152 ng·h/mL
same,Cmax (Geo. Mean),[2]; [7],39.8 ng/mL
same,Cmax (Mean),[2]; [7],44.1 ng/mL
same,Vz/F (Geo. Mean),[2]; [7],1730 L
same,Vz/F (Mean),[2]; [7],1820 L
same,t1/2 (Geo. Mean),[2]; [7],1.82 h
same,tmax (Median),[2]; [7],2.0 h
same,AUC0-12 (Geo. Mean),[2]; [8],127 ng·h/mL
same,AUC0-∞ (Geo. Mean),[2]; [8],137 ng·h/mL
same,Cmax (Geo. Mean),[2]; [8],29.8 ng/mL
same,Cmax (Mean),[2]; [8],31.3 ng/mL
same,Vz/F (Geo. Mean),[2]; [8],3210 L
same,Vz/F (Mean),[2]; [8],3360 L
same,t1/2 (Geo. Mean),[2]; [8],2.82 h
same,tmax (Median),[2]; [8],2.0 h
same,AUC0-12 (Geo. Mean),[2]; [9],142 ng·h/mL
same,AUC0-12 (Mean),[2]; [9],145 ng·h/mL
same,AUC0-24 (Geo. Mean),[2]; [9],278 ng·h/mL
same,AUC0-∞ (Geo. Mean),[2]; [9],168 ng·h/mL
same,Cmax (Mean),[2]; [9],28.4 ng/mL
same,Vz/F (Geo. Mean),[2]; [9],3550 L
same,Vz/F (Mean),[2]; [9],3910 L
same,t1/2 (Mean),[2]; [9],3.80 h
same,tmax (Median),[2]; [9],4.0 h
same,AUC0-12 (Geo. Mean),[2]; [10],114 ng·h/mL
same,AUC0-24 (Geo. Mean),[2]; [10],121 ng·h/mL
same,AUC0-24 (Mean),[2]; [10],122 ng·h/mL
same,AUC0-∞ (Geo. Mean),[2]; [10],121 ng·h/mL
same,C24 (Geo. Mean),[2]; [10],BLQ
same,C24 (Mean),[2]; [10],BLQ
same,Cmax (Geo. Mean),[2]; [10],28.5 ng/mL
same,Cmax (Mean),[2]; [10],30.0 ng/mL
same,Vz/F (Geo. Mean),[2]; [10],3330 L
same,Vz/F (Mean),[2]; [10],3520 L
same,t1/2 (Geo. Mean),[2]; [10],2.64 h
same,t1/2 (Mean),[2]; [10],2.73 h
same,tmax (Median),[2]; [10],1.8 h
same,"VZ/F, Day 14",[2]; 200 mg KAR5585 BID,7010 L
same,"mean VZ/F, Day 1",[2]; 200 mg KAR5585 BID,3220 L
same,Cmax (Mean),[2]; [11],87.8 ng/mL
same,Vz/F (Geo. Mean),[2]; [11],3130 L
same,Vz/F (Mean),[2]; [11],3220 L
